Data set [1] addresses T1, wt human LRRK2, catalytic site (Homo sapiens, UniProt Q5S007).
T1 construct: wt human LRRK2, catalytic site, catalytic site (ThermoFisher/USA); purchased ThermoFisher
The data set is described as follows: TR-FRET LanthaScreen Tb Kinase Activity Assay, LRRK2 kinase inhibition. The settings on record: 2 nM wt human LRRK2, 400 nM peptide, 38 μM ATP. Type of data set: biochemical. In short, it runs like this:
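TR-FRET LanthaScreen format: 2 nM wt human LRRK2 catalytic domain with 400 nM fluorescein-ERM (LRRKtide) and 38 μM ATP in Kinase Buffer A, after 15 min compound preincubation. Reaction 120 min at RT, then EDTA plus Tb-anti-pLRRKtide antibody for 60 min; emission ratios analysed per kit protocol.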

A short description of data set [2]: Human hepatocyte stability, in vitro h-Hept CLpredict. The data set is classed as in vitro ADME. The settings on record: cryopreserved hepatocytes, predicted hepatic clearance, cells without asterisk, read-out: hHep Cl. In a few lines:
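Cryopreserved human hepatocytes at 0.5×10^6 viable cells/mL in William's E medium, compound added from 100 μM solution, sampled 0–120 min in duplicate with LC/MS/MS quantitation. t1/2 from parent disappearance converted to CLint, then scaled to predicted hepatic clearance (well-stirred model, fub assumed 1) and extraction ratio.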

Some results are limits rather than exact numbers.

T1 sequence (Q5S007 1879-2138 limits assumed): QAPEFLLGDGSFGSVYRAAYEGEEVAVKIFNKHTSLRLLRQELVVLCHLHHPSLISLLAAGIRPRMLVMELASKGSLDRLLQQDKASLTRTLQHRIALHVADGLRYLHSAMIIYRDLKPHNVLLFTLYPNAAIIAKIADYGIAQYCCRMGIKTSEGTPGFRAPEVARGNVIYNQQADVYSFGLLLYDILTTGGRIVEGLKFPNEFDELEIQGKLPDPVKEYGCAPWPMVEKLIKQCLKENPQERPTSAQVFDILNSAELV

As to `Cc1n[nH]c2c1N=C(c1c(F)cccc1F)N1CCc3nc(N4CCOCC4)cc-2c31` [Example 42, 4-[8-(2,6-difluorophenyl)-5-methyl-3,4,7,9,13-pentazatetracyclo[7.6.1.02,6.012,16]hexadeca-1(16),2(6),4,7,12,14-hexaen-14-yl]morpholine], the IC50 in data set [1] was < 2 nM. The CLhep predicted at 1 µM in data set [2] is 6.3 to 14.7 mL/min/kg.

In the case of `Cc1n[nH]c2c1N=C(c1c(F)cccc1F)Nc1c-2cc(N2CC3(CCOCC3)C2)nc1C` [Example 47, 2-[8-(2,6-difluorophenyl)-5,11-dimethyl-3,4,7,9,12-pentazatricyclo[8.4.0.02,6]tetradeca-1(10),2(6),4,7,11,13-hexaen-13-yl]-7-oxa-2-azaspiro[3.5]nonane], the IC50 in data set [1] was < 2 nM. Besides, the CLhep predicted at 1 µM in data set [2] was 6.3 to 14.7 mL/min/kg.

On to `Cc1n[nH]c2c1N=C(c1c(F)cccc1F)Nc1cnc(N3CCO[C@@H](C(F)(F)F)C3)cc1-2` [Example 55, (2R)-4-[8-(2,6-difluorophenyl)-5-methyl-3,4,7,9,12-pentazatricyclo[8.4.0.02,6]tetradeca-1(10),2(6),4,7,11,13-hexaen-13-yl]-2-(trifluoromethyl)morpholine], for which the IC50 in data set [1] was < 2 nM. Moreover, the CLhep predicted at 1 µM in data set [2] was 6.3 to 14.7 mL/min/kg.

Consider `Cn1nccc1-c1cc2c(cn1)NC(c1c(F)cccc1F)=Nc1c(Cl)n[nH]c1-2` [Example 59, 3-chloro-5-(2,6-difluorophenyl)-9-(1-methyl-1H-pyrazol-5-yl)-1,6-dihydropyrazolo[4,3-d]pyrido[4,3-f][1,3]diazepine], for which the IC50 in data set [1] is < 2 nM. For the same molecule, the CLhep predicted at 1 µM in data set [2] was 6.3 to 14.7 mL/min/kg.

As a reminder, the IC50 is the concentration needed to halve the response being measured.

The record behind these values is patent US20240208972A1, “LRRK2 INHIBITORS AND USES THEREOF” (NEURON23, INC., priority 2022, published 2024).
